For one test, the target named is T1, human CB1 receptor (Homo sapiens, UniProt P21554).
T1 construct: purchased Perkin Elmer/NEN; host or cells: HEK-293 cells, stably transfected (membranes)
Kind of test: biochemical. It is filed as binding. The gist of the method:
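Displacement of [3H]CP55940 from membranes of HEK-293 cells stably expressing human CB1, in 50 mM Tris-HCl, 2.5 mM EDTA, 5 mM MgCl2, 1 mg/ml BSA, pH 7.4, 0.1% DMSO; 1.5 h at 30° C, then filtration.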

The subject of test [1] is IL-2 secretion from activated Jurkat cells. Kind of test: Inhibition of IL-2 in PMA/A23187 activated T cells (ELISA). The note with it: for reversal of IL-2 secretion inhibiting activity by antagonists: 0.5-5 μM of CB1 antagonist SR141716A or CB2 antagonist SR144528; for IC50: 24 hours after stimulation, read-out: calculated IC50 IL-2 secretion. It is filed as cell-based, human. The protocol: The technique used to quantify the amount of a given protein in a liquid sample, either tissue culture supernatant or body fluid, is based on Enzyme Linked ImmunoSorbent Assay (ELISA) methodology. Either commercially available or established in house, the assay is based on the capture of the protein of interest by specific antibodies bound to the bottom of an ELISA plate well. […] Again the unbound material is washed away, the samples are then incubated with the appropriate substrate yielding a calorimetric reaction. The reaction is stopped and reading is performed in a spectrophotometer at the appropriate wavelength. Samples are tested at least in duplicate and the appropriate standard curve, consisting of serial dilutions of the recombinant target protein, is incorporated on each plate. Concentration of the protein in the sample is calculated from the standard curve.
Jurkat cells (human acute lymphoma T-cell line; ATCC # TIB-152) are grown in RPMI 1640 medium with 2 mM L-glutamine adjusted to contain 1.5 g/L sodium bicarbonate, 4.5 g/L glucose, 10 mM HEPES, 1.0 mM sodium pyruvate, and 10% heat inactivated fetal bovine serum. Cells are grown in tissue culture flasks and seeded at appropriate density into 24 wells tissue culture plates. 2×10^6 cells in one milliliter are stimulated using 10 ng/ml of PMA (Sigma) and 1 μM A23187 calcium ionophore (Sigma). […] The controls and test compounds are added at indicated concentrations one hour before stimulation. Supernatant is collected 24 hours after stimulation and the levels of the inflammatory agent under study are measured in an ELISA assay as previously described. Inhibition is calculated versus vehicle treated cells.
The activation of the T cells is performed as previously described. The levels of IL-2 are measured in an ELISA assay as previously described. Inhibition is calculated versus vehicle treated cells.

The test system of test [2] is TNF-α secretion from activated RAW 264.7 macrophages. Description: Inhibition of TNF-α in LPS activated macrophages (ELISA). Format: cell-based, mouse. The note with it: for effect on TNF-α secretion: doses up to 20 μM. An excerpt: The technique used to quantify the amount of a given protein in a liquid sample, either tissue culture supernatant or body fluid, is based on Enzyme Linked ImmunoSorbent Assay (ELISA) methodology. Either commercially available or established in house, the assay is based on the capture of the protein of interest by specific antibodies bound to the bottom of an ELISA plate well. Unbound material is washed away, the captured protein is then exposed to a secondary antibody generally labeled with horseradish peroxidase (HRP) or alkaline phosphatase (ALP). Again the unbound material is washed away, the samples are then incubated with the appropriate substrate yielding a calorimetric reaction. The reaction is stopped and reading is performed in a spectrophotometer at the appropriate wavelength. Samples are tested at least in duplicate and the appropriate standard curve, consisting of serial dilutions of the recombinant target protein, is incorporated on each plate. Concentration of the protein in the sample is calculated from the standard curve.
RAW 264.7 macrophages, a mouse cell line (ATCC # TIB-71), were grown in Dulbecco's modified Eagle's medium (DMEM) with 4 mM L-glutamine adjusted to contain 1.5 g/L sodium bicarbonate, 4.5 g/L glucose, and 10% heat inactivated fetal bovine serum. Cells were grown in tissue culture flasks and seeded at appropriate density into 24 wells tissue culture plates. 0.5×10^6 Raw cells in one milliliter were stimulated with 2 μg/ml Lipopolysaccharide E. coli 055:B5 (DIFCO Laboratories). The mouse macrophages were pre-treated for one hour with controls or 10 μM of bicyclic CB2 ligands and later on activated with LPS. Dexamethasone was used as a positive control at 50 nM. Supernatant was collected 4 hours (for PGE2) and 24 hours (for IL-1β and TNF-α) after activation, and the levels of the inflammatory agent under study were determined by ELISA, as previously described. Inhibition was calculated versus vehicle treated cells.
The activation of the macrophages is performed as previously described. The levels of TNF-α are measured in an ELISA assay as previously described. Inhibition is calculated versus vehicle treated cells.
On the technique in general: ELISA stands for enzyme-linked immunosorbent assay.

The mark [3] stands for this setting: displacement of [3H]CP55940, hCB1 HEK-293 membranes, read-out: CB1 IC50.

Like-named read-outs stand apart in the source and are kept apart here.

T1 sequence (P21554 whole entry): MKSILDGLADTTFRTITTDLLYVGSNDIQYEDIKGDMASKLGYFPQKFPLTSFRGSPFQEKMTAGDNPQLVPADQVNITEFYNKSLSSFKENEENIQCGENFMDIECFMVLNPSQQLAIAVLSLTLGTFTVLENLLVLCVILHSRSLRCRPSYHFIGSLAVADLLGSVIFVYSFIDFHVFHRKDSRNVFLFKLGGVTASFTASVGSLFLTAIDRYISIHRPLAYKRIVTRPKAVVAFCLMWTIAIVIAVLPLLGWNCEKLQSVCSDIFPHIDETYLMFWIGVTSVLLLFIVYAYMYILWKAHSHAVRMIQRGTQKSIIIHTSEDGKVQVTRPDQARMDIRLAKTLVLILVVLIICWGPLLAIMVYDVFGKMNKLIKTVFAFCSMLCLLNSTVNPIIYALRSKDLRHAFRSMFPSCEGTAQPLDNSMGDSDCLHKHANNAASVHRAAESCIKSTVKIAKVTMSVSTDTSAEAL

As to `CCCCCCC(C)(C)c1cc(O)c(C2CC(=O)C3CC2C3(C)C)c(O)c1` (single isomer, unassigned; (-)) [Compound A, (−)-4-[4-(1,1-Dimethyl-heptyl)2,6-dihydroxy-phenyl]-6,6-dimethyl-bicyclo[3.1.1)heptan-2-one], the half-maximal inhibitory concentration (IC50) (usually the concentration that inhibits the measured activity by half) was 0.0276 µM on human CB1 receptor (setting [3]); 3 µM in test [1] (Homo sapiens, Jurkat); 10 µM in test [2] (Mus musculus, RAW264.7). Besides, the “reversal of IL-2 secretion inhibiting activity by antagonists” value in test [1] is recorded as “not reversed by any of these antagonists”. The “reduction of TNF-α secretion” value in test [2] (10 μM) stood at 53%.
As for `CCCCC(C)(C)c1cc(O)c(C2CC(=O)C3CC2C3(C)C)c(OC(=O)CCC(=O)O)c1` (single isomer, unassigned; (-)) [Compound Y, (−)-4-{4-[1,1-Dimethyl-pentyl]-2-succinate-6-hydroxy-phenyl}-6,6-dimethyl-bicyclo[3.1.1]heptan-2-one], the IC50 was 0.315 µM at human CB1 receptor (setting [3]) and 9 µM in test [1]. Besides, the “effect on TNF-α secretion” value in test [2] is “none of them did significantly affect TNF-α secretion”.
In the case of `CCCCC(C)(C)c1cc(O)c(C2CC(=O)C3CC2C3(C)C)c(O)c1` (single isomer, unassigned; (-)) [Compound L, (−)-4-[4(1,1-Dimethyl-pentyl)-2,6-dihydroxy-phenyl]-6,6-dimethyl-bicyclo[3.1.1]heptan-2-one], the half-inhibitory concentration (IC50) at human CB1 receptor (setting [3]) was 0.446 µM; in test [1] (Homo sapiens, Jurkat) it was 8 µM. In addition, in test [1], the “reversal of IL-2 secretion inhibiting activity by antagonists” value is given as “not reversed by any of these antagonists”. Further, the “effect on TNF-α secretion” value in test [2] is recorded as “none of them did significantly affect TNF-α secretion”.
Consider `CCCCCCC(C)(C)c1cc(OC)c(C2C=C(CO)C3CC2C3(C)C)c(OC)c1` (single isomer, unassigned; (+)) [HU-308, (+) {4-[4-(1,1-dimethylheptyl)-2,6-dimethoxy-phenyl]-6,6-dimethyl-bicyclo[3.1.1]hept-2-en-2-yl}-methanol, reference compound], for which the IC50 at human CB1 receptor (CB1 IC50, displacement of [3H]CP55940, hCB1 HEK-293 membranes) amounted to 3.6 µM. Moreover, the “effect on IL-2 secretion” value in test [1] (doses of up to 10 μM) is given as “minimal effect”.
Regarding `CCCCCCC(C)(C)c1cc(O)c([C@H]2CC(=O)[C@H]3C[C@@H]2C3(C)C)c(OC(=O)CCC(=O)O)c1` [Compound R, (−)-4-{4-[1,1-Dimethyl-heptyl]-2-succinate-6-hydroxy-phenyl}-6,6-dimethyl-bicyclo[3.1.1]heptan-2-one], the half-inhibitory concentration (IC50) was 0.041 µM at human CB1 receptor (setting [3]) and 9 µM in test [1] (Homo sapiens, Jurkat). For the same molecule, the “effect on TNF-α secretion” value in test [2] is recorded as “none of them did significantly affect TNF-α secretion”.

Values taken from US20050020544A1, “Bicyclic CB2 cannabinoid receptor ligands” (priority 2002, published 2005).
